Data published in ChEMBL document CHEMBL3352216, “Triterpene glycosides from red ginseng marc and their anti-inflammatory activities” (Bioorg Med Chem Lett, 2014).
≈ marks a conversion by molar mass, not a printed value. Calls of active or inactive are those of the source. The rule behind the calls is not given here.

What was measured:
[1] = Cytotoxicity against LPS-stimulated mouse RAW264.7 cells assessed as cell viability at 40 uM after 24 hrs by MTT assay (reference value: 100%); assay type: cell-based; details: LPS-stimulated RAW264.7 cells, read-out: Activity
[2] = Cytotoxicity against LPS-stimulated mouse RAW264.7 cells assessed as cell viability at 80 uM after 24 hrs by MTT assay (reference value: 100%); assay type: cell-based; details: LPS-stimulated RAW264.7 cells, read-out: Activity
[3] = Cytotoxicity against LPS-stimulated mouse RAW264.7 cells assessed as cell viability at 120 uM after 24 hrs by MTT assay (reference value: 100%); assay type: cell-based; details: LPS-stimulated RAW264.7 cells, read-out: Activity
RAW264.7 [4] = experiment: Antiinflammatory activity in LPS-stimulated mouse RAW264.7 cells assessed as reduction in nitric oxide production at 40 uM after 24 hrs by Griess method based ELISA (reference value: 52.4 +/- 0.9 uM); assay type: functional
RAW264.7 [5] = experiment: Antiinflammatory activity in LPS-stimulated mouse RAW264.7 cells assessed as reduction in nitric oxide production at 80 uM after 24 hrs by Griess method based ELISA (reference value: 52.4 +/- 0.9 uM); assay type: functional
RAW264.7 [6] = experiment: Antiinflammatory activity in LPS-stimulated mouse RAW264.7 cells assessed as reduction in nitric oxide production at 120 uM after 24 hrs by Griess method based ELISA (reference value: 52.4 +/- 0.9 uM); assay type: functional
RAW264.7 [7] = experiment: Antiinflammatory activity in LPS-stimulated mouse RAW264.7 cells assessed as reduction in nitric oxide production after 24 hrs by Griess method based ELISA; assay type: functional, cell-based; details: RAW264.7, 24 h
RAW264.7 [8] = experiment: Antiinflammatory activity in LPS-stimulated mouse RAW264.7 cells assessed as reduction in TNFalpha expression at 80 uM co-incubated with LPS for 24 hrs by RT-PCR method relative to untreated control; assay type: functional
RAW264.7 [9] = experiment: Antiinflammatory activity in LPS-stimulated mouse RAW264.7 cells assessed as reduction in TNFalpha expression at 120 uM co-incubated with LPS for 24 hrs by RT-PCR method relative to untreated control; assay type: functional
RAW264.7 [10] = experiment: Antiinflammatory activity in LPS-stimulated mouse RAW264.7 cells assessed as reduction in IL-1beta expression at 40 uM co-incubated with LPS for 24 hrs by RT-PCR method relative to untreated control; assay type: functional
RAW264.7 [11] = experiment: Antiinflammatory activity in LPS-stimulated mouse RAW264.7 cells assessed as reduction in IL-1beta expression at 80 uM co-incubated with LPS for 24 hrs by RT-PCR method relative to untreated control; assay type: functional
RAW264.7 [12] = experiment: Antiinflammatory activity in LPS-stimulated mouse RAW264.7 cells assessed as reduction in IL-1beta expression at 120 uM co-incubated with LPS for 24 hrs by RT-PCR method relative to untreated control; assay type: functional
RAW264.7 [13] = experiment: Antiinflammatory activity in LPS-stimulated mouse RAW264.7 cells assessed as reduction in IL6 expression at 40 uM co-incubated with LPS for 24 hrs by RT-PCR method relative to untreated control; assay type: functional
RAW264.7 [14] = experiment: Antiinflammatory activity in LPS-stimulated mouse RAW264.7 cells assessed as reduction in IL6 expression at 80 uM co-incubated with LPS for 24 hrs by RT-PCR method relative to untreated control; assay type: functional
RAW264.7 [15] = experiment: Antiinflammatory activity in LPS-stimulated mouse RAW264.7 cells assessed as reduction in IL6 expression at 120 uM co-incubated with LPS for 24 hrs by RT-PCR method relative to untreated control; assay type: functional
RAW264.7 [16] = experiment: Antiinflammatory activity in LPS-stimulated mouse RAW264.7 cells assessed as reduction in iNOS expression co-incubated with LPS for 24 hrs by RT-PCR method relative to untreated control; assay type: functional, cell-based
RAW264.7 [17] = experiment: Antiinflammatory activity in LPS-stimulated mouse RAW264.7 cells assessed as reduction in IL6 level at 40 uM co-incubated with LPS for 24 hrs by ELISA method; assay type: functional, cell-based
RAW264.7 [18] = experiment: Induction of iNOS mRNA expression in LPS-non-stimulated mouse RAW264.7 cells by RT-PCR method; assay type: cell-based
RAW264.7 [19] = experiment: Antiinflammatory activity in LPS-stimulated mouse RAW264.7 cells assessed as reduction in iNOS expression at 40 uM co-incubated with LPS for 24 hrs by RT-PCR method relative to untreated control; assay type: functional
RAW264.7 [20] = experiment: Antiinflammatory activity in LPS-stimulated mouse RAW264.7 cells assessed as reduction in iNOS expression at 80 uM co-incubated with LPS for 24 hrs by RT-PCR method relative to untreated control; assay type: functional
RAW264.7 [21] = experiment: Antiinflammatory activity in LPS-stimulated mouse RAW264.7 cells assessed as reduction in iNOS expression at 120 uM co-incubated with LPS for 24 hrs by RT-PCR method relative to untreated control; assay type: functional
RAW264.7 [22] = experiment: Antiinflammatory activity in LPS-stimulated mouse RAW264.7 cells assessed as reduction in COX2 expression at 40 uM co-incubated with LPS for 24 hrs by RT-PCR method relative to untreated control; assay type: functional
RAW264.7 [23] = experiment: Antiinflammatory activity in LPS-stimulated mouse RAW264.7 cells assessed as reduction in COX2 expression at 80 uM co-incubated with LPS for 24 hrs by RT-PCR method relative to untreated control; assay type: functional
RAW264.7 [24] = experiment: Antiinflammatory activity in LPS-stimulated mouse RAW264.7 cells assessed as reduction in COX2 expression at 120 uM co-incubated with LPS for 24 hrs by RT-PCR method relative to untreated control; assay type: functional
RAW264.7 [25] = experiment: Antiinflammatory activity in LPS-stimulated mouse RAW264.7 cells assessed as reduction in TNFalpha expression at 40 uM co-incubated with LPS for 24 hrs by RT-PCR method relative to untreated control; assay type: functional

With C[C@@H]1C[C@@H](O)[C@]2(C)CC[C@]3(C)[C@H](CC[C@@H]4[C@@]5(C)CC[C@H](O[C@@H]6O[C@H](CO)[C@@H](O)[C@H](O)[C@H]6O[C@@H]6O[C@H](CO)[C@@H](O)[C@H](O)[C@H]6O)C(C)(C)[C@@H]5CC[C@]43C)[C@@H]2[C@]1(C)O the viability at 24 h, 40 µM [1] was 90.3%, the viability at 24 h, 80 µM [2] was 91.7% and the viability at 24 h, 120 µM [3] was 73.9%. For the same compound, the Activity (RAW264.7 [4]) was 54.5 µM, the Activity (RAW264.7 [5]) was 40.4 µM and the Activity (RAW264.7 [6]) was 30.8 µM. It also gave an IC50 (RAW264.7 [7]) of 127 µg/mL (≈ 161 µM).
With CC(C)=CCC[C@@H](C)[C@H]1CC[C@@]2(C)[C@@H]3CC=C4C(C)(C)[C@@H](O[C@@H]5O[C@H](CO[C@@H]6O[C@H](CO[C@@H]7O[C@H](CO)[C@@H](O)[C@H](O)[C@H]7O)[C@@H](O)[C@H](O)[C@H]6O)[C@@H](O)[C@H](O)[C@H]5O)CC[C@]4(C)[C@H]3CC[C@]12C the “fold change (FC)” value (RAW264.7 [8]) was 1, the “fold change (FC)” value (RAW264.7 [9]) was 0.5 and the “fold change (FC)” value (RAW264.7 [10]) was 1. For the same compound, the “fold change (FC)” value (RAW264.7 [11]) was 1.1, the “fold change (FC)” value (RAW264.7 [12]) was 0.5 and the “fold change (FC)” value (RAW264.7 [13]) was 0.9. For the same compound, the “fold change (FC)” value (RAW264.7 [14]) was 1, the “fold change (FC)” value (RAW264.7 [15]) was 0.6 and the inhibition (RAW264.7 [16]) was “Dose-dependent effect”. For the same compound, the inhibition (RAW264.7 [17]) was “Active”, the viability at 24 h, 40 µM [1] was 121% and the viability at 24 h, 80 µM [2] was 145%. It also gave a viability at 24 h, 120 µM [3] of 155%, an Activity (RAW264.7 [4]) of 40.9 µM and an Activity (RAW264.7 [5]) of 27.5 µM. For the same compound, the Activity (RAW264.7 [6]) was 19.8 µM, the IC50 (RAW264.7 [7]) was 86.7 µg/mL (≈ 94.9 µM) and the Activity (RAW264.7 [18]) was “Non-toxic”. For the same compound, the “fold change (FC)” value (RAW264.7 [19]) was 1, the “fold change (FC)” value (RAW264.7 [20]) was 1.1 and the “fold change (FC)” value (RAW264.7 [21]) was 0.6. The “fold change (FC)” value (RAW264.7 [22]) was 0.7, the “fold change (FC)” value (RAW264.7 [23]) was 0.8 and the “fold change (FC)” value (RAW264.7 [24]) was 0.4. The “fold change (FC)” value (RAW264.7 [25]) was 0.9.
